Measurements published in patent US9732094B2, “Arylquinazolines” (Merck Patent GmbH, priority 2013, dated 2017).
Where two headings read alike, the source gives them in different places.

Experiments:
DNA-PK = DNA-PK (Homo sapiens (Human), UniProt P78527); test: DNA-PK assay (biochemical), flashplate 33P-ATP kinase assay; conditions: biochemical DNA-PK assay
Procedure, shortened: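 Reactions ran in streptavidin-coated flashplates and were halted by 200 mM EDTA, with a further 30 min at room temperature before saline washing.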

[1] = target: DNA-PK phosphorylation at serine 2056 (Homo sapiens (Human), UniProt P78527); test: DNA-PK phosphorylation at serine 2056 (cellular), bleomycin-treated HCT116 cells, ELISA; format: cell-based; conditions: cellular DNA-PK phosphorylation at serine 2056, HCT116; read-out: IC50 pDNA-PK
Procedure, shortened: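 Chemiluminescent ELISA quantified DNA-PK Ser2056 phosphorylation relative to total DNA-PKcs in HCT116 cells. Cells received compounds together with 10 μM bleomycin for 6 h; DMSO served as blank.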

Kv11.1 (hERG) = Kv11.1 (hERG) (Homo sapiens (Human), UniProt Q12809); test: Kv11.1 (hERG) ion channel activity (patch clamp assay), HEK293 cells transfected with hERG gene; conditions: hERG patch clamp assay (cells without asterisk)
Kv11.1 (hERG), sequence (Q12809 whole entry): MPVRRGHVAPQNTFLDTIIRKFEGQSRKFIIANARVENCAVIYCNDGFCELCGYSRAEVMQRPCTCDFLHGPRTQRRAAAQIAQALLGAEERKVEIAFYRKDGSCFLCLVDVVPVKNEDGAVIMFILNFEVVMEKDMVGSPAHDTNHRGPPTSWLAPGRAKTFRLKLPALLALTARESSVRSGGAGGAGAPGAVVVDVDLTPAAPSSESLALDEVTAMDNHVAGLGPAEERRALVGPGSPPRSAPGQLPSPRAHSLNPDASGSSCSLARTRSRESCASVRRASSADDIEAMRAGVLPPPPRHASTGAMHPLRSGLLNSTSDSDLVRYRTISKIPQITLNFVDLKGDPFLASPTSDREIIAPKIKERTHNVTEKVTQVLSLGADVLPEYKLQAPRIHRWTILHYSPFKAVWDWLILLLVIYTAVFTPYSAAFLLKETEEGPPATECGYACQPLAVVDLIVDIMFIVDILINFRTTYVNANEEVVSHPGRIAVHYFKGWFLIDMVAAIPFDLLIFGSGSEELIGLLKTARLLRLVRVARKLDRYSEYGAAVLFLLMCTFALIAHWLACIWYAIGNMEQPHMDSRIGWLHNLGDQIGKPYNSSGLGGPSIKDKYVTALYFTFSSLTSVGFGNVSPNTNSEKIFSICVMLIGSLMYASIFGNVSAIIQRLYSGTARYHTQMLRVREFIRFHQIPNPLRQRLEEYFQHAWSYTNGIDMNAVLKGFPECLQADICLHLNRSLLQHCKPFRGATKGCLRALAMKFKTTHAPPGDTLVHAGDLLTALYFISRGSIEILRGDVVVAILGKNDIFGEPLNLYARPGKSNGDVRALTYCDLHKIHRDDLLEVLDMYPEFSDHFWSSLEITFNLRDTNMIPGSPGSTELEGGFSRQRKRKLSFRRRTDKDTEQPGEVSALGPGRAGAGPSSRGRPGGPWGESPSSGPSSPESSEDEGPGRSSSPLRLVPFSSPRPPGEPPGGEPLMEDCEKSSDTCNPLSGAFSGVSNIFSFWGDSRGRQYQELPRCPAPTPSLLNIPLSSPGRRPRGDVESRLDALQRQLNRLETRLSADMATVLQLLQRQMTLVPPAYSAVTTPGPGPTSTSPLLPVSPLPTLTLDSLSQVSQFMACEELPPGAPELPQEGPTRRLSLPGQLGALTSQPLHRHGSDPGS

Row | Compound | IC50 (DNA-PK) [nM] | IC50 [1] [µM] | Ki (Kv11.1 (hERG); Ki [Kv1.11 hERG]) [µM] | Ki (Kv11.1 (hERG); read-out: Ki [Kv1.11 hERG]) [µM]
1 | COc1nccnc1C(O)c1cc(-c2ncnc3cc(N4CCOCC4)cnc23)c(F)cc1Cl (stereo not drawn) [Example 247, [2-Chloro-4-fluoro-5-(7-morpholin-4-yl-pyrido[3,2-d}-pyrimidin-4-yl)-phenyl]-(3-methoxy-pyrazin-2-yl)-methanol] | 7 to 30 | 5 to 10 | 15 to 25 | 
2 | Cc1nccnc1[C@H](O)c1ccc(F)c(-c2ncnc3cc(N4CCOCC4)cc(F)c23)c1 [Example 248, (R)-[4-Fluoro-3-(5-fluoro-7-morpholin-4-ylquinazolin-4-yl)-phenyl]-(3-methyl-pyrazin-2-yl)-methanol] | < 3 | < 0.5 |  | > 25
3 | COc1ccc(C(O)c2cc(-c3ncnc4cc(N5CCOCC5)cnc34)c(F)cc2Cl)nn1 (stereo not drawn) [Example 257, [2-Chloro-4-fluoro-5-(7-morpholin-4-yl-pyrido[3,2-d}-pyrimidin-4-yl)-phenyl]-(6-methoxy-pyridazin-3-yl)-methanol] | 3 to 7 | 0.5 to 5 |  | > 25
4 | COc1ccc(C(O)c2ccc(F)c(-c3ncnc4cc(N5CCOCC5)cc(F)c34)c2)nn1 (stereo not drawn) [Example 260, [4-Fluoro-3-(5-fluoro-7-morpholin-4-yl-quinazolin-4-yl)-phenyl]-(6-methoxy-pyridazin-3-yl)-methanol] | < 3 | < 0.5 |  | > 25
5 | COc1nccnc1C(C(N)=O)c1cc(-c2ncnc3cc(N4CCOCC4)cc(F)c23)c(F)cc1Cl (stereo not drawn) [Example 261, 2-[2-Chloro-4-fluoro-5-(5-fluoro-7-morpholin-4-yl-quinazolin-4-yl)-phenyl]-2-(3-methoxy-pyrazin-2-yl)acetamide] | 7 to 30 | 0.5 to 5 | 15 to 25 | 
6 | Cc1nccnc1C(O)c1ccc(F)c(-c2ncnc3cc(N4CCOCC4)c(F)cc23)c1 (stereo not drawn) [Example 283, [4-Fluoro-3-(6-fluoro-7-morpholin-4-yl-quinazolin-4-yl)-phenyl]-(3-methyl-pyrazin-2-yl)-methanol] | 7 to 30 | 10 to 30 |  | > 25
7 | NC(=O)C(c1ccc(F)c(-c2ncnc3cc(N4CCOCC4)ccc23)c1)c1nncc2sccc12 (stereo not drawn) [Example 285, 2-[4-Fluoro-3-(7-morpholin-4-yl-quinazolin-4-yl)-phenyl]-2-thieno-[2,3-d}pyridazin-4-yl-acetamide] | 3 to 7 | 10 to 30 | 15 to 25 | 
8 | NC(=O)C(c1cc(-c2ncnc3cc(N4CCOCC4)ccc23)c(F)cc1Cl)c1ncccc1Cl (stereo not drawn) [Example 289, 2-[2-Chloro-4-fIuoro-5-(7-morpholin-4-yl-quinazolin-4-yl)-phenyl]-2-(3-chloro-pyridin-2-yl)-acetamide] | < 3 | 0.5 to 5 | 15 to 25 | 
9 | NC(=O)C(c1ccc(F)c(-c2ncnc3cc(N4CCOCC4)ccc23)c1)c1nnc(Cl)c2ccsc12 (stereo not drawn) [Example 290, 2-(4-Chlorothieno-[2,3-d}pyridazin-7-yl)-2-[4-fluoro-3-(7-morpholin-4-yl-quinazolin-4-yl)-phenyl]acetamide] | 3 to 7 | 5 to 10 |  | < 10
10 | NC(=O)C(c1ccc(F)c(-c2ncnc3cc(N4CCOCC4)ccc23)c1)c1nnc(Cl)c2sccc12 (stereo not drawn) [Example 291, 2-(7-Chlorothieno-[2,3-d}pyridazin-4-yl)-2-[4-fluoro-3-(7-morpholin-4-yl-quinazolin-4-yl)-phenyl]acetamide] | 3 to 7 | 5 to 10 |  | < 10
11 | NC(=O)c1cncc(C(C(N)=O)c2ccc(F)c(-c3ncnc4cc(N5CCOCC5)ccc34)c2)n1 (stereo not drawn) [Example 292, 6-{Carbamoyl-[4-fluoro-3-(7-morpholin-4-yl-quinazolin-4-yl)-phenyl]methyl}-pyrazine-2-carboxylic acid amide] | 7 to 30 | 10 to 30 |  | > 25
12 | NC(=O)C(c1cccnc1)c1cc(-c2ncnc3cc(N4CCOCC4)ccc23)c(F)cc1Cl (stereo not drawn) [Example 293, 2-[2-Chloro-4-fiuoro-5-(7-morpholin-4-yl-quinazolin-4-yl)-phenyl]-2-pyridin-3-ylacetamide] | 3 to 7 | 5 to 10 |  | > 25
13 | NC(=O)C(c1cccnc1)c1cc(-c2ncnc3cc(N4CCOCC4)ccc23)c(F)cc1F (stereo not drawn) [Example 294, 2-[2,4-Difluoro-5-(7-morpholin-4-yl-quinazolin-4-yl)-phenyl]-2-pyridin-3-ylacetamide] | 3 to 7 | 10 to 30 |  | > 25
14 | NC(=O)C(c1cccnc1)c1ccc(F)c(-c2ncnc3cc(N4CCOCC4)ccc23)c1 (stereo not drawn) [Example 295, 2-[4-Fluoro-3-(7-morpholin-4-yl-quinazolin-4-yl)-phenyl]-2-pyridin-3-ylacetamide] | 7 to 30 | 10 to 30 |  | > 25
15 | Cc1cncc(C(O)c2ccc(F)c(-c3ncnc4cc(N5CCOCC5)ccc34)c2)n1 (stereo not drawn) [Example 296, [4-Floro-3-(7-morpholin-4-yl-quinazolin-4-yl)-phenyl]-(6-methyl-pyrazin-2-yl)-methanol] | 7 to 30 | 5 to 10 |  | > 25
16 | NC(=O)C(c1cncc(Cl)c1)c1ccc(F)c(-c2ncnc3cc(N4CCOCC4)ccc23)c1 (stereo not drawn) [Example 297, 2-(5-Chloro-pyridin-3-yl)-2-[4-fluoro-3-(7-morpholin-4-yl-quinazolin-4-yl)-phenyl]acetamide] | 7 to 30 | 10 to 30 | 10 to 15 | 
17 | NC(=O)C(c1cc(-c2ncnc3cc(N4CCOCC4)ccc23)c(F)cc1Cl)c1cccc2nncn12 (stereo not drawn) [Example 298, 2-[2-Chloro-4-fluoro-5-(7-morpholin-4-yl-quinazolin-4-yl)-phenyl]-2-[1,2,4]-triazolo[4,3-a]pyridin-5-ylacetamide] | 7 to 30 | 10 to 30 |  | > 25
18 | NC(=O)C(c1ccc(F)c(-c2ncnc3cc(N4CCOCC4)ccc23)c1)c1ncnn2cccc12 (stereo not drawn) [Example 299, 2-[4-Fluoro-3-(7-morpholin-4-yl-quinazolin-4-yl)-phenyl]-2-pyrrolo-[2,1-f][1,2,4]triazin-4-ylacetamide] | 7 to 30 | 10 to 30 |  | < 10
19 | NC(=O)C(c1cccnn1)c1cc(-c2ncnc3cc(N4CCOCC4)ccc23)c(F)cc1Cl (stereo not drawn) [Example 300, 2-[2-Chloro-4-fluoro-5-(7-morpholin-4-yl-quinazolin-4-yl)-phenyl]-2-pyridazin-3-ylacetamide] | 7 to 30 | 10 to 30 |  | > 25
20 | Cc1cnc(C(C(N)=O)c2cc(-c3ncnc4cc(N5CCOCC5)ccc34)c(F)cc2Cl)c(C)n1 (stereo not drawn) [Example 301, 2-[2-Chloro-4-fluoro-5-(7-morpholin-4-yl-quinazolin-4-yl)-phenyl]-2-(3,5-dimethyl-pyrazin-2-yl)acetamide] | 7 to 30 | 0.5 to 5 |  | > 25
21 | Nc1cncc(C(O)c2ccc(F)c(-c3ncnc4cc(N5CCOCC5)ccc34)c2)n1 (stereo not drawn) [Example 302, (6-Amino-pyrazin-2-yl)-[4-fluoro-3-(7-morpholin-4-yl-quinazolin-4-yl)-phenyl]methanol] | 3 to 7 | 5 to 10 |  | > 25
22 | Cc1nccnc1C(C(N)=O)c1cc(-c2ncnc3cc(N4CCOCC4)ccc23)ccc1Cl (stereo not drawn) [Example 303, 2-[2-Chloro-5-(7-morpholin-4-yl-quinazolin-4-yl)-phenyl]-2-(3-methyl-pyrazin-2-yl)-acetamide] | 7 to 30 | 5 to 10 | 15 to 25 | 
23 | COc1nccnc1C(C(N)=O)c1cc(-c2ncnc3cc(N4CCOCC4)ccc23)ccc1Cl (stereo not drawn) [Example 304, 2-[2-Chloro-5-(7-morpholin-4-yl-quinazolin-4-yl)-phenyl]-2-(3-methoxy-pyrazin-2-yl)acetamide] | 7 to 30 | 5 to 10 |  | > 25
24 | COc1nccnc1C(C(N)=O)c1ccc(F)c(-c2ncnc3cc(N4CCOCC4)ccc23)c1 (stereo not drawn) [Example 305, 2-[4-Fluoro-3-(7-morpholin-4-yl-quinazolin-4-yl)-phenyl]-2-(3-methoxy-pyrazin-2-yl)acetamide] | 7 to 30 | 5 to 10 |  | > 25
25 | COc1ccc(C(C(N)=O)c2cc(-c3ncnc4cc(N5CCOCC5)ccc34)c(F)cc2F)nn1 (stereo not drawn) [Example 306, 2-[2,4-Difluoro-5-(7-morpholin-4-yl-quinazolin-4-yl)-phenyl]-2-(6-methoxy-pyridazin-3-yl)acetamide] | 7 to 30 | 10 to 30 |  | > 25
26 | COc1nnccc1C(C(N)=O)c1cc(-c2ncnc3cc(N4CCOCC4)ccc23)c(F)cc1Cl (stereo not drawn) [Example 307, 2-[2-Chloro-4-fluoro-5-(7-morpholin-4-yl-quinazolin-4-yl)-phenyl]-2-(3-methoxypyridazin-4-yl)acetamide] | 3 to 7 | 5 to 10 |  | > 25
27 | COc1ccc(C(C(N)=O)c2ccc(F)c(-c3ncnc4cc(N5CCOCC5)ccc34)c2)nn1 (stereo not drawn) [Example 308, 2-[4-Fluoro-3-(7-morpholin-4-yl-quinazolin-4-yl)-phenyl]-2-(6-methoxypyridazin-3-yl)acetamide] | 7 to 30 | 10 to 30 |  | > 25
28 | COc1ccc(C(C(N)=O)c2cc(-c3ncnc4cc(N5CCOCC5)ccc34)ccc2Cl)nn1 (stereo not drawn) [Example 310, 2-[2-Chloro-5-(7-morpholin-4-yl-quinazolin-4-yl)-phenyl]-2-(6-methoxy-pyridazin-3-yl)acetamide] | > 30 | 10 to 30 | 15 to 25 | 
